Measurements taken from PubChem BioAssay (NCI).
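48-hour exposure; five concentrations; linearly interpolated endpoints. Abbreviation: GI50, concentration required for 50% inhibition of growth. TGI denotes the concentration required for complete inhibition of growth.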

What was measured:
Assay in all cases: NCI tumour cell line growth inhibition, 48 h
LOX IMVI melanoma = tested on: LOX IMVI melanoma
UO-31 renal = tested on: UO-31 renal
PC-3 prostate = tested on: PC-3 prostate
A498 renal = tested on: A498 renal
DU-145 prostate = tested on: DU-145 prostate
SNB-75 CNS = tested on: SNB-75 CNS
786-0 renal = tested on: 786-0 renal
SF-268 CNS = tested on: SF-268 CNS
HL-60(TB) leukemia = tested on: HL-60(TB) leukemia
SN12C renal = tested on: SN12C renal
IGROV1 ovarian = tested on: IGROV1 ovarian
MCF7 breast = tested on: MCF7 breast
RXF 393 renal = tested on: RXF 393 renal
HOP-62 NSCLC = tested on: HOP-62 NSCLC
TK-10 renal = tested on: TK-10 renal
MOLT-4 leukemia = tested on: MOLT-4 leukemia
SF-539 CNS = tested on: SF-539 CNS
OVCAR-5 ovarian = tested on: OVCAR-5 ovarian
M14 melanoma = tested on: M14 melanoma
SF-295 CNS = tested on: SF-295 CNS
HCT-116 colon = tested on: HCT-116 colon
HS 578T breast = tested on: HS 578T breast
UACC-62 melanoma = tested on: UACC-62 melanoma
HCT-15 colon = tested on: HCT-15 colon
SK-OV-3 ovarian = tested on: SK-OV-3 ovarian
K-562 leukemia = tested on: K-562 leukemia
CCRF-CEM leukemia = tested on: CCRF-CEM leukemia
HOP-92 NSCLC = tested on: HOP-92 NSCLC
T-47D breast = tested on: T-47D breast
HCC-2998 colon = tested on: HCC-2998 colon
MALME-3M melanoma = tested on: MALME-3M melanoma
NCI/ADR-RES ovarian = tested on: NCI/ADR-RES ovarian
NCI-H460 lung = tested on: NCI-H460 lung
SK-MEL-28 melanoma = tested on: SK-MEL-28 melanoma
MDA-MB-435 = tested on: MDA-MB-435
NCI-H23 lung = tested on: NCI-H23 lung
ACHN renal = tested on: ACHN renal
CAKI-1 renal = tested on: CAKI-1 renal
MDA-MB-231 breast = tested on: MDA-MB-231 breast
NCI-H226 lung = tested on: NCI-H226 lung
NCI-H522 lung = tested on: NCI-H522 lung
A549 NSCLC = tested on: A549 NSCLC
HT29 colon = tested on: HT29 colon
SR leukemia = tested on: SR leukemia
RPMI-8226 leukemia = tested on: RPMI-8226 leukemia
SK-MEL-2 melanoma = tested on: SK-MEL-2 melanoma
SW-620 colon = tested on: SW-620 colon
EKVX NSCLC = tested on: EKVX NSCLC
BT-549 breast = tested on: BT-549 breast
SK-MEL-5 melanoma = tested on: SK-MEL-5 melanoma
COLO 205 colon = tested on: COLO 205 colon
KM12 colon = tested on: KM12 colon
OVCAR-8 ovarian = tested on: OVCAR-8 ovarian
SNB-19 CNS = tested on: SNB-19 CNS
OVCAR-4 ovarian = tested on: OVCAR-4 ovarian
U251 CNS = tested on: U251 CNS
UACC-257 melanoma = tested on: UACC-257 melanoma

NC(N)=Nc1ccc(Oc2cccc(Nc3ccc(Cl)c(C(F)(F)F)c3)c2)cc1
GI50 (LOX IMVI melanoma): 1690 nM | TGI (LOX IMVI melanoma): 3150 nM | GI50 (UO-31 renal): 2950 nM | TGI (UO-31 renal): 11700 nM | GI50 (PC-3 prostate): 1540 nM | TGI (PC-3 prostate): 3000 nM | GI50 (A498 renal): 1640 nM | TGI (A498 renal): 3200 nM | GI50 (DU-145 prostate): 1980 nM | TGI (DU-145 prostate): 3720 nM | GI50 (SNB-75 CNS): 1200 nM | TGI (SNB-75 CNS): 2500 nM | GI50 (786-0 renal): 1620 nM | TGI (786-0 renal): 3190 nM | GI50 (SF-268 CNS): 1580 nM | TGI (SF-268 CNS): 3050 nM | GI50 (HL-60(TB) leukemia): 1990 nM | TGI (HL-60(TB) leukemia): 4290 nM | GI50 (SN12C renal): 1690 nM | TGI (SN12C renal): 3450 nM | GI50 (IGROV1 ovarian): 1270 nM | TGI (IGROV1 ovarian): 2740 nM | GI50 (MCF7 breast): 1720 nM | TGI (MCF7 breast): 3480 nM | GI50 (RXF 393 renal): 1620 nM | TGI (RXF 393 renal): 3050 nM | GI50 (HOP-62 NSCLC): 1600 nM | TGI (HOP-62 NSCLC): 3160 nM | GI50 (TK-10 renal): 1940 nM | TGI (TK-10 renal): 4750 nM | GI50 (MOLT-4 leukemia): 1950 nM | TGI (MOLT-4 leukemia): 4570 nM | GI50 (SF-539 CNS): 1710 nM | TGI (SF-539 CNS): 3140 nM | GI50 (OVCAR-5 ovarian): 1560 nM | TGI (OVCAR-5 ovarian): 2940 nM | GI50 (M14 melanoma): 1820 nM | TGI (M14 melanoma): 3450 nM | GI50 (SF-295 CNS): 1660 nM | TGI (SF-295 CNS): 3210 nM | GI50 (HCT-116 colon): 1620 nM | TGI (HCT-116 colon): 3130 nM | GI50 (HS 578T breast): 1930 nM | TGI (HS 578T breast): 4620 nM | GI50 (UACC-62 melanoma): 1750 nM | TGI (UACC-62 melanoma): 3230 nM | GI50 (HCT-15 colon): 1920 nM | TGI (HCT-15 colon): 4360 nM | GI50 (SK-OV-3 ovarian): 2690 nM | TGI (SK-OV-3 ovarian): 6670 nM | GI50 (K-562 leukemia): 2500 nM | TGI (K-562 leukemia): 6510 nM | GI50 (CCRF-CEM leukemia): 2680 nM | TGI (CCRF-CEM leukemia): 8960 nM | GI50 (HOP-92 NSCLC): 1290 nM | TGI (HOP-92 NSCLC): 2650 nM | GI50 (T-47D breast): 1750 nM | TGI (T-47D breast): 3950 nM | GI50 (HCC-2998 colon): 1750 nM | TGI (HCC-2998 colon): 3240 nM | GI50 (MALME-3M melanoma): 1720 nM | TGI (MALME-3M melanoma): 3680 nM | GI50 (NCI/ADR-RES ovarian): 14800 nM | TGI (NCI/ADR-RES ovarian): 34300 nM | GI50 (NCI-H460 lung): 1880 nM | TGI (NCI-H460 lung): 3560 nM | GI50 (SK-MEL-28 melanoma): 1740 nM | TGI (SK-MEL-28 melanoma): 3160 nM | GI50 (MDA-MB-435): 1670 nM | TGI (MDA-MB-435): 3080 nM | GI50 (NCI-H23 lung): 1710 nM | TGI (NCI-H23 lung): 3210 nM | GI50 (ACHN renal): 2790 nM | TGI (ACHN renal): 8470 nM | GI50 (CAKI-1 renal): 1730 nM | TGI (CAKI-1 renal): 3570 nM

COc1ccc(Cn2cc3c(c2-c2cc(OC)c(OC)c(OC)c2)CCCc2cnoc2-3)cc1N
GI50 (LOX IMVI melanoma): 643 nM | TGI (LOX IMVI melanoma): > 100000 nM | GI50 (MDA-MB-231 breast): 1580 nM | TGI (MDA-MB-231 breast): > 100000 nM | GI50 (UO-31 renal): 761 nM | TGI (UO-31 renal): > 100000 nM | GI50 (PC-3 prostate): 463 nM | TGI (PC-3 prostate): > 100000 nM | GI50 (A498 renal): 407 nM | TGI (A498 renal): 2880 nM | GI50 (NCI-H226 lung): 1590 nM | TGI (NCI-H226 lung): > 100000 nM | GI50 (DU-145 prostate): 1450 nM | TGI (DU-145 prostate): > 100000 nM | GI50 (NCI-H522 lung): 306 nM | TGI (NCI-H522 lung): 1530 nM | GI50 (A549 NSCLC): 1450 nM | TGI (A549 NSCLC): > 100000 nM | GI50 (SNB-75 CNS): 384 nM | TGI (SNB-75 CNS): 9220 nM | GI50 (HT29 colon): 442 nM | TGI (HT29 colon): > 100000 nM | GI50 (786-0 renal): 823 nM | TGI (786-0 renal): > 100000 nM | GI50 (SF-268 CNS): 1140 nM | TGI (SF-268 CNS): > 100000 nM | GI50 (SR leukemia): 405 nM | TGI (SR leukemia): > 100000 nM | GI50 (HL-60(TB) leukemia): 333 nM | GI50 (RPMI-8226 leukemia): 935 nM | TGI (RPMI-8226 leukemia): > 33400 nM | GI50 (SN12C renal): 1750 nM | TGI (SN12C renal): > 100000 nM | GI50 (SK-MEL-2 melanoma): 651 nM | TGI (SK-MEL-2 melanoma): > 100000 nM | GI50 (IGROV1 ovarian): 1040 nM | TGI (IGROV1 ovarian): > 100000 nM | GI50 (MCF7 breast): 392 nM | TGI (MCF7 breast): > 100000 nM | GI50 (RXF 393 renal): 412 nM | TGI (RXF 393 renal): 3700 nM | GI50 (HOP-62 NSCLC): 814 nM | TGI (HOP-62 NSCLC): > 100000 nM | GI50 (TK-10 renal): 98300 nM | TGI (TK-10 renal): > 100000 nM | GI50 (MOLT-4 leukemia): 1110 nM | TGI (MOLT-4 leukemia): > 100000 nM | GI50 (SF-539 CNS): 426 nM | TGI (SF-539 CNS): 4320 nM | GI50 (OVCAR-5 ovarian): 1840 nM | TGI (OVCAR-5 ovarian): > 100000 nM | GI50 (M14 melanoma): 501 nM | TGI (M14 melanoma): > 100000 nM | GI50 (SF-295 CNS): 468 nM | TGI (SF-295 CNS): > 100000 nM | GI50 (HCT-116 colon): 423 nM | TGI (HCT-116 colon): > 100000 nM | GI50 (SW-620 colon): 449 nM | TGI (SW-620 colon): > 100000 nM | GI50 (EKVX NSCLC): 2430 nM | TGI (EKVX NSCLC): > 100000 nM | GI50 (BT-549 breast): 436 nM | TGI (BT-549 breast): 2730 nM | GI50 (HS 578T breast): 404 nM | TGI (HS 578T breast): 6400 nM | GI50 (UACC-62 melanoma): 489 nM | TGI (UACC-62 melanoma): > 100000 nM | GI50 (SK-MEL-5 melanoma): 1010 nM | TGI (SK-MEL-5 melanoma): > 37200 nM | GI50 (COLO 205 colon): 532 nM | TGI (COLO 205 colon): 2140 nM | GI50 (KM12 colon): 632 nM | TGI (KM12 colon): > 100000 nM | GI50 (HCT-15 colon): 543 nM | TGI (HCT-15 colon): > 100000 nM | GI50 (OVCAR-8 ovarian): 2140 nM | TGI (OVCAR-8 ovarian): > 100000 nM | GI50 (SK-OV-3 ovarian): 957 nM | TGI (SK-OV-3 ovarian): > 100000 nM | GI50 (K-562 leukemia): 404 nM | TGI (K-562 leukemia): > 100000 nM | GI50 (CCRF-CEM leukemia): 430 nM | TGI (CCRF-CEM leukemia): > 100000 nM | GI50 (HOP-92 NSCLC): 432 nM | TGI (HOP-92 NSCLC): 4820 nM | GI50 (T-47D breast): 590 nM | TGI (T-47D breast): > 100000 nM | GI50 (HCC-2998 colon): 1670 nM | TGI (HCC-2998 colon): > 32000 nM | GI50 (SNB-19 CNS): 734 nM | TGI (SNB-19 CNS): > 100000 nM | GI50 (OVCAR-4 ovarian): 5130 nM | TGI (OVCAR-4 ovarian): > 100000 nM | GI50 (NCI/ADR-RES ovarian): 699 nM | TGI (NCI/ADR-RES ovarian): > 100000 nM | GI50 (NCI-H460 lung): 410 nM | TGI (NCI-H460 lung): > 100000 nM | GI50 (SK-MEL-28 melanoma): 3050 nM | TGI (SK-MEL-28 melanoma): > 67700 nM | GI50 (MDA-MB-435): 240 nM | TGI (MDA-MB-435): 633 nM | GI50 (NCI-H23 lung): 1750 nM | TGI (NCI-H23 lung): > 100000 nM | GI50 (ACHN renal): 669 nM | TGI (ACHN renal): > 100000 nM | GI50 (CAKI-1 renal): 491 nM | TGI (CAKI-1 renal): > 100000 nM | GI50 (U251 CNS): 768 nM | TGI (U251 CNS): > 100000 nM | GI50 (UACC-257 melanoma): 578 nM | TGI (UACC-257 melanoma): > 100000 nM
